Data on 18 compounds can be found in ChEMBL document CHEMBL2029234, “Sulfonyl-morpholino-pyrimidines: SAR and development of a novel class of selective mTOR kinase inhibitor” (Bioorg Med Chem Lett, 2012).

Values after ≈ are worked out from the molar mass of the structure shown.

A short description of series [1]: Plasma clearance in iv dosed rat. The format is ADME, organism-based.
A short description of series [2]: Inhibition of Cytochrome P450. The format is ADME.
Series [3] in a line: Oral bioavailability in rat. The format is ADME, organism-based. As to conditions: in vivo.
For series [4], the target named is Voltage-gated inwardly rectifying potassium channel KCNH2 (Homo sapiens, UniProt Q12809).
Sequence of Voltage-gated inwardly rectifying potassium channel KCNH2 (Q12809 whole entry): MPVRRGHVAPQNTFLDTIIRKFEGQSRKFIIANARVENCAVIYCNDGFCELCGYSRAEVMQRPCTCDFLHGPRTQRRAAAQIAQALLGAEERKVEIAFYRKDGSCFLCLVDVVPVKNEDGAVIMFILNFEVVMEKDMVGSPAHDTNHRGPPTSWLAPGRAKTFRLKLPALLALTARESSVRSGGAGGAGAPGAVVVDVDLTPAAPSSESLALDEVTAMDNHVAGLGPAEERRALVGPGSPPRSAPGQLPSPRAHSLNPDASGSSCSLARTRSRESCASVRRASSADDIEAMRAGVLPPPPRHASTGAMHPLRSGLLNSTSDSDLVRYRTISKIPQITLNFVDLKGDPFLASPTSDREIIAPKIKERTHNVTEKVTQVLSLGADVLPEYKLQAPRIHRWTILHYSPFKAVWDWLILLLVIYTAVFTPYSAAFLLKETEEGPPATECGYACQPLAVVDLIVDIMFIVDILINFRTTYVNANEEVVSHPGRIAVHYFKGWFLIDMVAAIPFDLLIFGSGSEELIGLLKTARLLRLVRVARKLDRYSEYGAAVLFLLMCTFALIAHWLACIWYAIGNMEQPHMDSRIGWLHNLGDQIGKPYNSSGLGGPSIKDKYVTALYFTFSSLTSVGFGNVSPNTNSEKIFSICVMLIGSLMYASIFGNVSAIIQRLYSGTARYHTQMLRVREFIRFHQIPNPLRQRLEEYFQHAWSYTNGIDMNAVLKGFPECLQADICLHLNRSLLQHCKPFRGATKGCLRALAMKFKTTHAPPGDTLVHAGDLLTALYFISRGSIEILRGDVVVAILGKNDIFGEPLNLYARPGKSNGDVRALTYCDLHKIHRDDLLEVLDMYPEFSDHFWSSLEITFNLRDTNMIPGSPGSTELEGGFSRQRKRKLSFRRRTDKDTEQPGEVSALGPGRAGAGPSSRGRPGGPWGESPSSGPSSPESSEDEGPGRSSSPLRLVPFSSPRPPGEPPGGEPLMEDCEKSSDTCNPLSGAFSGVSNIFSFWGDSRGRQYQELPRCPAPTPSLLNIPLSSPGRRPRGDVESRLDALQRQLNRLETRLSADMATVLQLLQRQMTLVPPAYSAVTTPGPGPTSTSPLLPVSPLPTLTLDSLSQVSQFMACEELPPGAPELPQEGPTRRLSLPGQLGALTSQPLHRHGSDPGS
Series [5] can be described thus: physchem. The following applies: buffer, pH 7.4.
Series [6] in a line: Inhibition of Akt Ser473 phosphorylation in human MDA-MB-468 cells after 2 hrs. The format is cell-based. The following applies: MDA-MB-468, 2 h.
In series [7] the target is Serine/threonine-protein kinase mTOR (Homo sapiens, UniProt P42345). The experiment in a line: Inhibition of recombinant FLAG-tagged mTOR kinase expressed in HEK293 cells using Biotin-Ahx-Lys-Lys-Ala-Asn-Gln-Val-Phe-Leu-Gly-Phe-Thr-Tyr-Val-Ala-Pro-Ser-Val-Leu-Glu-Ser-Val-Lys-Glu-NH2 as substrate after 90 mins.
The target of series [8] is Phosphatidylinositol 4,5-bisphosphate 3-kinase catalytic subunit alpha isoform (Homo sapiens, UniProt P42336). Kind of series: Inhibition of human recombinant PI3Kalpha expressed in baculovirus system using PI(4,5)P2 as substrate after 20 mins.
Sequence of Phosphatidylinositol 4,5-bisphosphate 3-kinase catalytic subunit alpha isoform (P42336 whole entry, canonical isoform): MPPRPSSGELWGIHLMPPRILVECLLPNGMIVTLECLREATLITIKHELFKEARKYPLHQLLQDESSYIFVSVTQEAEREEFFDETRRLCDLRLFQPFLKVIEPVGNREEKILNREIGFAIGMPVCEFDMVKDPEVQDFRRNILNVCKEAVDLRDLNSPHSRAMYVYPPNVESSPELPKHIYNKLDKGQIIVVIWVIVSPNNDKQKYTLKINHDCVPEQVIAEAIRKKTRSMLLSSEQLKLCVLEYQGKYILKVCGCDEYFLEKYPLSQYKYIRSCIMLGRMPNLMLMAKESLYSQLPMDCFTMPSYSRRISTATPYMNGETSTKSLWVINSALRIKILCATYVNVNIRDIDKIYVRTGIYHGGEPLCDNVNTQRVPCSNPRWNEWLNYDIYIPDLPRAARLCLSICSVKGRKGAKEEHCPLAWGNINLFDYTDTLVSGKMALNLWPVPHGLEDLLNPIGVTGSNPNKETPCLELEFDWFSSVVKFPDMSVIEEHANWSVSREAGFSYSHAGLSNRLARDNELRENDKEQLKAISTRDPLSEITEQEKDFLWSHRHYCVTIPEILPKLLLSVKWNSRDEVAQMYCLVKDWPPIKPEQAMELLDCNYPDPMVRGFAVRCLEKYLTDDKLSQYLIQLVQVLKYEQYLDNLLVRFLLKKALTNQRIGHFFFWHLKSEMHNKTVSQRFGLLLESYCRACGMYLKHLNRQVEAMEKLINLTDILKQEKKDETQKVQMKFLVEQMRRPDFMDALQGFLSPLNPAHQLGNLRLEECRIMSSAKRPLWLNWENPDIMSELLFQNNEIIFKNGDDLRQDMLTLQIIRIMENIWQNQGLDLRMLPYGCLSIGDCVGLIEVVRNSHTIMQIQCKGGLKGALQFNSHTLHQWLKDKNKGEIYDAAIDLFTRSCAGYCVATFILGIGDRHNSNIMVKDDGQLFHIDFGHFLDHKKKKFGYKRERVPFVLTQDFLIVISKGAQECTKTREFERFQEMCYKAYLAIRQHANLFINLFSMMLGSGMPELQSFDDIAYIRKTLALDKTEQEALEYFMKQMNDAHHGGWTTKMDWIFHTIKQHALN
Series [9] is described as follows: physchem. As to conditions: aqueous, pH 7.4.
Series [10] in a line: Fraction unbound in rat plasma. The format is ADME, cell-free.
The nature of series [11]: Volume of distribution in iv dosed rat. The format is ADME, organism-based. The following applies: in vivo.
Series [12] in a line: Apparent permeability from apical to basal side of MDCK cells. The format is ADME, cell-based, Canis lupus familiaris. As to conditions: dog.
The target of another series is Cytochrome P450 2C9 (Homo sapiens, UniProt P11712). The experiment in a line: Inhibition of CYP2C9. The format is ADME.
Sequence of Cytochrome P450 2C9 (P11712 whole entry): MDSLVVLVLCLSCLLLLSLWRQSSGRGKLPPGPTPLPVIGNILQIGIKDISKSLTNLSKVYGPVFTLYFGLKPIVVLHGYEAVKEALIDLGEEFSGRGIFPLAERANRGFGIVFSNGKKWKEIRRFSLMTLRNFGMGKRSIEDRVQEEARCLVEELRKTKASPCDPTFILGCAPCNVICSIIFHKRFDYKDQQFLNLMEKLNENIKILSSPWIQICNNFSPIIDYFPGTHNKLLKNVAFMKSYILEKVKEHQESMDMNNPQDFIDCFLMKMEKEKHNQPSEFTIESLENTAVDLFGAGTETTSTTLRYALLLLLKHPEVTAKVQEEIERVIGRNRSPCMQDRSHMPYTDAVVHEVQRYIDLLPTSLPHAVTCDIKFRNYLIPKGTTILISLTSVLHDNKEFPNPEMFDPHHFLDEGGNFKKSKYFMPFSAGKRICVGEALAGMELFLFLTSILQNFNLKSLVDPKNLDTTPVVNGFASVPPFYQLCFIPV
A short description of series [13]: Apparent permeability from basal to apical side of MDCK cells. The format is ADME, cell-based, Canis lupus familiaris. The following applies: dog.

By clearance is commonly meant the volume of plasma or blood freed of the substance per unit of time. Low values mean inefficient removal, high ones efficient removal. In general, IC50 refers to the concentration that inhibits the measured activity by half. By bioavailability is commonly meant dose-corrected exposure relative to a reference, in per cent. For orientation: logD means the decadic logarithm of the distribution of all forms, ionised or not, between an organic phase and buffer at a given pH. Low values mean lower lipophilicity, high ones higher lipophilicity. In the case of `O=S(=O)(Cc1cc(N2CCOCC2)nc(-c2ccccn2)n1)c1ccccc1`, the clearance in [1] is 32 mL/min/kg. Also, the IC50 in series [2] is > 10 µM; in series [4], > 32 µM; in series [6] it was 9.2 µM. In series [3], this compound displayed a bioavailability of 18%. The compound further showed a pH-dependent lipophilicity (logD) in “physchem [5]” of 1.34.
One may read the solubility as the dissolved amount per volume that the medium holds. Read a high solubility as much dissolved substance. As to `CS(=O)(=O)Cc1cc(N2CCOCC2)nc(-c2cnc3[nH]ccc3c2)n1`, the clearance in [1] was found to be 4 mL/min/kg. Further, the concentration for half-maximal inhibition (IC50) in series [7] is 0.262 µM; in series [8] it was 0.98 µM; in series [4], > 32 µM; in [6], 1.03 µM. Moreover, in series [3], the bioavailability worked out at 43%. The compound also returned a solubility in “physchem [9]” of 48 µM (≈ 17.9 µg/mL).
In general, fraction unbound refers to free concentration divided by total concentration. As a reminder, the Vd is a proportionality between amount in the body and measured concentration, not a real space. A low value points to confinement near the circulation. By Papp A→B is commonly meant how fast a substance crosses the layer from the apical side. For orientation: Papp B→A means the apparent permeability from the basolateral to the apical side of a cell layer. With `CS(=O)(=O)Cc1cc(N2CCOCC2)nc(-c2ccc3[nH]ccc3c2)n1`, in series [10], the free fraction (fraction unbound) stood at 0.193. Besides, the clearance in series [1] turned out to be 4 mL/min/kg. Besides, in series [11], the Vd was 0.4 L/kg. For the same compound, in [12], the Papp A→B worked out at 37 ×10⁻⁶ cm/s. This compound had a bioavailability in series [3] of 3%. The IC50 was > 32 µM in [4], 5 µM against Cytochrome P450 2C9 and 5.7 µM in series [6]. Moreover, the logD in the series “physchem [5]” was 2.1. Further, the concentration in solution in the series “physchem [9]” (solubility) was 6.2 µM (≈ 2.31 µg/mL). The Papp B→A in series [13] was 34 ×10⁻⁶ cm/s.
Take `O=S(=O)(CCc1cnccn1)Cc1cc(N2CCOCC2)nc(-c2ccccn2)n1`: the values for the 50% inhibitory concentration (IC50) in series [7], in series [8] and in [6] were 3.16 µM, > 90 µM and > 80 µM, respectively. Further, the logD in the series “physchem [5]” is < 0.5.
On to `CC(C)S(=O)(=O)Cc1cc(N2CCOCC2)nc(-c2ccccn2)n1`, for which the half-maximal inhibitory concentration (IC50) in series [7] is 1.54 µM; in series [8], 36.7 µM; in series [6] it was > 30 µM.
As to `O=S(=O)(Cc1cc(N2CCOCC2)nc(-c2ccccn2)n1)c1ccc(F)cc1`, the IC50 in series [7] is 1.38 µM; in series [8] it was 7.6 µM; in series [6], 12.4 µM.
In turn, `CS(=O)(=O)Cc1cc(N2CCOCC2)nc(-c2ccccc2)n1` yielded a fraction unbound in series [10] of 0.28. The same compound displayed a clearance in series [1] of 11 mL/min/kg. In addition, the concentration for half-maximal inhibition (IC50) in series [7] was 5 µM; in series [2] it was > 10 µM; in series [8], > 1000 µM; in [6], > 30 µM. Moreover, the bioavailability in series [3] worked out at 97%. This compound gave a logD in the series “physchem [5]” of 1.94.
On to `Cn1ccc2cc(-c3nc(CS(C)(=O)=O)cc(N4CCOCC4)n3)ccc21`, for which the 50% inhibitory concentration (IC50) in series [7] is > 100 µM; in series [8], > 24 µM.
Turning to `CS(=O)(=O)Cc1cc(N2CCOCC2)nc(-c2cccc3[nH]ccc23)n1`, the unbound share (fraction unbound) in series [10] worked out at 0.301. In addition, the IC50 was 1.46 µM in series [7], 14.3 µM in [8], > 33 µM in [4] and 6.3 µM in [6]. For the same compound, in “physchem [5]”, the pH-dependent lipophilicity (logD) turned out to be 1.7. This compound also yielded a solubility in “physchem [9]” of 13 µM (≈ 4.84 µg/mL).
`CS(=O)(=O)Cc1cc(N2CCOCC2)nc(-c2cccc(CO)c2)n1`: in series [10], the free fraction (fraction unbound) worked out at 0.447. The clearance in [1] was determined as 25 mL/min/kg. Besides, the IC50 is 0.601 µM in [7], 2.05 µM in series [8] and 3.4 µM in series [6]. Besides, the bioavailability in series [3] stood at 41%.
For the compound `COCc1cccc(-c2nc(CS(C)(=O)=O)cc(N3CCOCC3)n2)c1`, the half-maximal inhibitory concentration (IC50) in series [7] was 22.5 µM; in series [8] it was > 300 µM.
In the case of `CS(=O)(=O)Cc1cc(N2CCOCC2)nc(-c2ccc3[nH]cnc3c2)n1`, the clearance in [1] is 37 mL/min/kg. Further, the IC50 was 0.285 µM in [7], 1.06 µM in [8], > 32 µM in series [4] and 7.2 µM in [6]. In series [3], this compound returned a bioavailability of 10%.
In the case of `C[C@H]1COCCN1c1cc(CS(C)(=O)=O)nc(-c2ccc3[nH]ccc3c2)n1`, in series [10], the fraction unbound stood at 0.167. The same compound displayed a clearance in series [1] of 36 mL/min/kg. Moreover, the bioavailability in [3] is 33%. For the same compound, the values for the concentration for half-maximal inhibition (IC50) in series [8] and in series [6] were 22.9 µM and 1.88 µM, respectively. Besides, the logD in “physchem [5]” is 2.4. The compound further displayed a solubility in “physchem [9]” of 192 µM (≈ 74.2 µg/mL).
As to `C[C@@H]1COCCN1c1cc(CS(C)(=O)=O)nc(-c2ccc3[nH]ccc3c2)n1`, the IC50 in series [8] was 5.3 µM; in [6] it was 3.1 µM.
Consider `CS(=O)(=O)Cc1cc(N2CC3CCC(C2)O3)nc(-c2ccc3[nH]ccc3c2)n1`, for which the fraction unbound in [10] was found to be 0.22. Moreover, the IC50 in [7] is 0.252 µM; in [8], > 48 µM; in series [4], > 32 µM; in [6], 1.9 µM. Moreover, the concentration in solution in the series “physchem [9]” (solubility) was 1.5 µM (≈ 0.598 µg/mL).
Take `CS(=O)(=O)Cc1cc(N2CCOCC2)nc(-c2ccc(NS(C)(=O)=O)cc2)n1`: the unbound share (fraction unbound) in [10] was > 0.66. The compound also had a clearance in series [1] of 15 mL/min/kg. Further, the bioavailability in [3] was found to be 38%. Moreover, the concentration for half-maximal inhibition (IC50) was > 100 µM in series [8] and > 20 µM in series [6]. The compound also displayed a logD in “physchem [5]” of 0.85. In addition, in the series “physchem [9]”, the concentration in solution (solubility) was 11 µM (≈ 4.69 µg/mL).
Turning to `CS(=O)(=O)Cc1cc(N2CCOCC2)nc(NC(=O)c2ccno2)n1`, the fraction unbound in series [10] was 0.32. Also, the IC50 in [7] was 0.037 µM; in series [8], > 100 µM; in series [6] it was 5.1 µM. The compound further gave a logD in the series “physchem [5]” of 1.74.
On to `CS(=O)(=O)Cc1cc(N2CCOCC2)nc(-c2ccc(NC(=O)Nc3ccc(F)cc3)cc2)n1`, for which, in the series “physchem [5]”, the logD is > 3.2.
